These results are taken from patent publication US12606564B2, “Adenosine receptor antagonist compounds” (ILDONG PHARMACEUTICAL CO., LTD., priority 2019, dated 2026).

Assay [1] addresses T1, Human recombinant adenosine A1 receptors (Homo sapiens, UniProt P30542).
T1 construct: expressed in transfected cells; host or cells: CHO-K1, membrane preparation
T1 sequence (P30542 1-326): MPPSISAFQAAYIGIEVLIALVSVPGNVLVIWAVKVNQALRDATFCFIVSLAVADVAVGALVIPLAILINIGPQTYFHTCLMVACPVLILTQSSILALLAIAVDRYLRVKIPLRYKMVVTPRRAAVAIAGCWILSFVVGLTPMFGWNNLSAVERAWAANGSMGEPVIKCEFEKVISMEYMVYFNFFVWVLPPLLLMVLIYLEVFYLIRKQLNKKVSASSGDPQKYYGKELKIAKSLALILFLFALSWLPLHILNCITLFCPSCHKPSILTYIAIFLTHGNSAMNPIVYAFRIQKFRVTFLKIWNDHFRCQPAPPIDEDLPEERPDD
The experiment in a line: Human adenosine A1 receptor binding assay with [3H] DPCPX (purine compounds, Example 2.2). Conditions: membranes of CHO-K1 cells. The protocol:
Test compound is weighed, dissolved in DMSO to make a stock solution of 10 mM, diluted with DMSO to prepare working solutions, then 100-fold diluted to the indicated concentrations. Human recombinant adenosine A1 receptors expressed in CHO-K1 cells were used to prepare membranes in incubation buffer (20 mM HEPES (4-(2-hydroxyethyl)-1-piperazineethanesulfonic acid) pH 7.4, 10 mM MgCl2, 100 mM NaCl). Test compound or vehicle (2.2 μL) was added in 200 μL of membranes and incubated with 20 μL of 1 nM [^3H] DPCPX (8-cyclopentyl-1,3-dipropylxanthine) for 90 minutes at 25° C. Non-specific binding was estimated in the presence of 100 μM R(−)-PIA ((R)—N-(1-methyl-2-phenylethyl)adenosine). The incubation was stopped by vacuum filtration onto 0.3% PEI (polyethylenimine) presoaked GF/B filters using a harvester followed by four washes with ice-cold 50 mM Tris-HCl, pH 7.4, and the radioactivity on GF/B filtermats counted in a scintillation counter (PerkinElmer Topcount™) to determine [^3H] DPCPX specifically bound. Final concentration of vehicle DMSO is 1%. Data is fitted using the non-linear curve fitting routines in Meth-IQ software (ID Business Solutions Ltd., UK).
The binding affinity of selected compounds against A1 receptor was assessed using the binding assay described above.

Another assay addresses human recombinant A2AR (Homo sapiens, UniProt P29274). The experiment in a line: Human A2A functional cAMP assay in human recombinant A2AR stable cell line (HEK293). In general terms: cAMP levels reflect the balance of adenylyl cyclase and phosphodiesterase activity.
Assay [2] concerns the target T2, Human recombinant adenosine A2A receptor (Homo sapiens, UniProt P29274). The experiment in a line: A2A receptor (A2AR) SPA binding assay with [3H] SCH58261. More on the design: expressed in transfected cells; host or cells: HEK293 (HKE293 [sic]), membrane preparation. Conditions: [3H] SCH58261 radioligand. The protocol:
Test compound is weighed, then dissolved in 100% DMSO to prepare 20 mM stock solution. Dilute the stock solution with DMSO into 100× final concentration, and then use this DMSO solution to perform 3-fold serial dilution for totally 12 concentrations with DMSO. 10-fold diluting the serial dilutions with assay buffer to the working concentrations. […] SCH58261 as the radioligand. The assay buffer is prepared with DPBS containing 10 mM MgCl2. 5 μL of compound working solutions (a total of 12 concentrations starting from 1 or 3 μM, 1/3 dilution) is transferred to the wells by the 12-channel pipette. A2AR membrane is pre-incubated with adenosine deaminase for 15 min at room temperature. Then SPA beads are added and the membrane-bead suspension mixture is incubated for 30 min at room temperature with the rotary mixer. […] SCH58261 radioligand solution. Final concentration of DMSO in the A2AR SPA binding assay is 1%. Sealing the plates and incubate for 1 hr at 27° C. with vigorous mixing on a plate shaker. After 1 hr, centrifuge the plate (1000 rpm, 1 min), and settle the plate for 5 min prior to counting. The signal of radiation is measured by the Microbeta2. […] Non-specific binding refers to the wells containing reaction system with the presence of 100 μM SCH58261. The dose-response curve is fitted with GraphPad Prism 5 and IC50 values are calculated by log(inhibitor) vs. response—Variable slope program with the following formula: Y=Bottom+(Top−Bottom)/(1+10^[…] ligand concentration used in assay/radio ligand Kd)
The binding affinity of selected compounds against A2A receptor was assessed using the SPA binding assay described above.

Assay [3] has as its target T2, Human recombinant adenosine A2A receptor. The experiment in a line: Human adenosine A2A receptor binding assay with [3H] CGS-21680 (Example 4.2). As to conditions: summary of Table 5, binding assays of Examples 4.1 and 4.2.
Method: Test compound is weighed, dissolved in DMSO to make a stock solution of 10 mM, diluted with DMSO to prepare working solutions, then 100-fold diluted to the indicated concentrations. Human recombinant adenosine A2A receptors expressed in HEK-293 cells were used to prepare membranes in incubation buffer (50 mM Tris-HCl, pH 7.4, 10 mM MgCl2, 1 mM EDTA, 2 U/ml Adenosine Deaminase). Test compound or vehicle (2.2 μL) was added in 200 μL of membranes and incubated with 20 μL of 50 nM [^3H] […] Non-specific binding was estimated in the presence of 50 μM NECA (5′-N-ethylcarboxamidoadenosine). The incubation was stopped by vacuum filtration onto 0.3% PEI (polyethylenimine) presoaked GF/B filters using a harvester followed by four washes with ice-cold 50 mM Tris-HCl, pH 7.4, and the radioactivity on GF/B filtermats counted in a scintillation counter (PerkinElmer Topcount™) to determine [^3H] […] Final concentration of vehicle DMSO is 1%.

T2 sequence (P29274 whole entry): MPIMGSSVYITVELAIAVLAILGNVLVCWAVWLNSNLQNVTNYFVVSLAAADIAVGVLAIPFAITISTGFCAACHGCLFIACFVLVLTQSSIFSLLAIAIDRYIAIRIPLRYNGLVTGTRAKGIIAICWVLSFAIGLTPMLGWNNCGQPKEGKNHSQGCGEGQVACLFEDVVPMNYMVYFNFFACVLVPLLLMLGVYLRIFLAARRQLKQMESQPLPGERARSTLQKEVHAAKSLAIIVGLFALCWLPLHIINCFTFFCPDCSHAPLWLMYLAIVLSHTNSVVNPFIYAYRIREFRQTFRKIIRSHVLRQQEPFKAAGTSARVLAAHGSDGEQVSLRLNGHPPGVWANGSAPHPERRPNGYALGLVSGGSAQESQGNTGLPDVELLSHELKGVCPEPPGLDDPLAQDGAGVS
human recombinant A2AR, sequence (P29274 whole entry): as above
Method for human recombinant A2AR: cAMP assay was performed on human recombinant A2AR stable cell line (HEK293). The cells were cultured at 37° C. and 5% CO2 with culture medium (90% DMEM+10% FBS+500 μg/mL G418). […] Then, 100 nL compounds were transferred by Echo machine with 12 doses respectively. Cells were collected with stimulation buffer (1×HBSS with 5 mM HEPES+0.05 mM IBMX+0.1% BSA) and plated the cells at the density of 5,000 cells/well, centrifuged at 600 rpm for 3 min and then incubation with compounds at room temperature for 60 min. After that, 5 μL 4× Eu-cAMP tracer solution and 5 μL 4× ULight™-anti-cAMP solution were added into the cells, centrifuged at 600 rpm for 3 min and incubated for 60 min. cAMP signal was detected with Envision. GraphPad Prism (version 6.0) was used for the data analysis.
The A2A receptor antagonistic activity of selected compounds was assessed using the cAMP assay described above.

For orientation: Ki means a dissociation constant, usually derived from enzyme kinetics or from competition with a known ligand. Usually IC50 stands for the point on the concentration scale where inhibition reaches its midpoint. Consider `N#Cc1cccc(-c2nc(N)nc3c2ncn3Cc2ccc(N)c(C(F)(F)F)c2)c1` [Compound 110, 3-[2-amino-9-[[4-amino-3-(trifluoromethyl)phenyl]methyl]purin-6-yl]benzonitrile], for which the values for the Ki in assay [1] and in assay [2] were 300 to 1000 nM and less than 10 nM, respectively. For the same molecule, on human recombinant A2AR, the IC50 is less than 300 nM.
In the case of `N#Cc1cc(-c2nc(N)nc3c2ncn3Cc2c(F)cc(N)cc2F)ccn1` [Compound 126, 4-[2-amino-9-[(4-amino-2,6-difluoro-phenyl)methyl]purin-6-yl]pyridine-2-carbonitrile], the inhibitory constant (Ki) in assay [2] was in the range of 10 to 100 nM.
As for `N#Cc1cccc(-c2nc(N)nc3c2ncn3Cc2ccc(N)cc2)c1F` [Compound 102, 3-(2-amino-9-(4-aminobenzyl)-9H-purin-6-yl)-2-fluorobenzonitrile], the Ki in assay [2] was 100 to 500 nM.
With `N#Cc1cncc(-c2nc(N)nc3c2ncn3Cc2c(F)cc(N)cc2F)c1` [Compound 125, 5-[2-amino-9-[(4-amino-2,6-difluoro-phenyl)methyl]purin-6-yl]pyridine-3-carbonitrile], the Ki in assay [2] lay within 100 to 500 nM.
The same measure, in the same setting: then `N#Cc1cc(-c2nc(N)nc3c2ncn3Cc2c(F)cccc2F)ccn1` [Compound 134, 4-[2-amino-9-[(2,6-difluorophenyl)methyl]purin-6-yl]pyridine-2-carbonitrile], with 10 to 100 nM.
`N#Cc1cccc(-c2nc(N)nc3c2cnn3Cc2ccc(N)cc2F)c1F` [Compound 203, 3-(6-amino-1-(4-amino-2-fluorobenzyl)-1H-pyrazolo[3,4-d]pyrimidin-4-yl)-2-fluorobenzonitrile]: the “activity as dual antagonists of both A2A and A1 receptors (in words)” value in assay [3] is given as “potent activity as dual antagonists”.
In the case of `Cc1c(C#N)cccc1-c1nc(N)nc2c1ncn2Cc1c(F)cccc1F` [Compound 114, 3-(2-amino-9-(2,6-difluorobenzyl)-9H-purin-6-yl)-2-methylbenzonitrile], the Ki in assay [1] is greater than 1000 nM; in assay [2], 10 to 100 nM.
For the molecule `N#Cc1ccnc(-c2nc(N)nc3c2ncn3Cc2ccc(N)cc2F)c1` [Compound 120, 2-[2-amino-9-[(4-amino-2-fluoro-phenyl)methyl]purin-6-yl]pyridine-4-carbonitrile], the Ki in assay [1] was 300 to 1000 nM; in assay [2] it was less than 10 nM. Also, the IC50 on human recombinant A2AR is less than 300 nM.
`N#Cc1cccc(-c2nc(N)nc3c2ncn3Cc2c(F)cc(N)cc2F)c1F` [Compound 108, 3-(2-amino-9-(4-amino-2,6-difluorobenzyl)-9H-purin-6-yl)-2-fluorobenzonitrile]: the Ki in assay [1] lay within 300 to 1000 nM; in assay [2], 10 to 100 nM. In addition, on human recombinant A2AR, the IC50 is 300 to 1000 nM.
As to `N#Cc1ccnc(-c2nc(N)nc3c2ncn3Cc2c(F)cccc2F)c1` [Compound 132, 2-[2-amino-9-[(2,6-difluorophenyl)methyl]purin-6-yl]pyridine-4-carbonitrile], the Ki in assay [1] was no more than 300 nM; in assay [2], less than 10 nM. Moreover, the IC50 at human recombinant A2AR is less than 300 nM.
With `N#Cc1cccc(-c2nc(N)nc3c2ncn3Cc2c(F)cc(N)cc2F)c1` [Compound 107, 3-(2-amino-9-(4-amino-2,6-difluorobenzyl)-9H-purin-6-yl)benzonitrile], the Ki in assay [1] is no more than 300 nM; in assay [2], less than 10 nM. The IC50 on human recombinant A2AR was less than 300 nM.
For `N#Cc1cccc(-c2nc(N)nc3c2ncn3Cc2c(F)cccc2F)c1` [Compound 112, 3-(2-amino-9-(2,6-difluorobenzyl)-9H-purin-6-yl) benzonitrile] the same measures were no more than 300 nM, less than 10 nM and less than 300 nM.
Taken in the same sequence, the figures for `Cc1cc(Cn2cnc3c(-c4cc(C#N)ccn4)nc(N)nc32)ccc1N` [Compound 128, 2-[2-amino-9-[(4-amino-3-methyl-phenyl)methyl]purin-6-yl]pyridine-4-carbonitrile] were 300 to 1000 nM, less than 10 nM and 300 to 1000 nM.
`Cc1c(C#N)cccc1-c1nc(N)nc2c1ncn2Cc1ccc(N)cc1` [Compound 105, 3-(2-amino-9-(4-aminobenzyl)-9H-purin-6-yl)-2-methylbenzonitrile]: the Ki in assay [2] is greater than 500 nM.
With `Cc1cc(Cn2cnc3c(-c4cccc(C#N)c4F)nc(N)nc32)ccc1N` [Compound 106, 3-(2-amino-9-(4-amino-3-methylbenzyl)-9H-purin-6-yl)-2-fluorobenzonitrile], the results for the Ki in assay [1] and in assay [2] were greater than 1000 nM and 10 to 100 nM, respectively.
Take `Cc1cc(Cn2cnc3c(-c4cccc(C#N)c4)nc(N)nc32)ccc1N` [Compound 104, 3-(2-amino-9-(4-amino-3-methylbenzyl)-9H-purin-6-yl)benzonitrile]: the Ki in assay [1] is greater than 1000 nM; in assay [2] it was less than 10 nM. The IC50 at human recombinant A2AR was less than 300 nM.
`N#Cc1cccc(-c2nc(N)nc3c2ncn3Cc2ccc(N)cc2F)c1` [Compound 109, 3-(2-amino-9-(4-amino-2-fluorobenzyl)-9H-purin-6-yl)benzonitrile]: the Ki in assay [1] is 300 to 1000 nM; in assay [2], less than 10 nM. The IC50 at human recombinant A2AR was less than 300 nM.
`N#Cc1cccc(-c2nc(N)nc3c2ncn3Cc2ccc(N)cc2F)c1F` [Compound 103, 3-(2-amino-9-(4-amino-2-fluorobenzyl)-9H-purin-6-yl)-2-fluorobenzonitrile]: the Ki in assay [1] is greater than 1000 nM; in assay [2], 10 to 100 nM. Moreover, the IC50 on human recombinant A2AR is greater than 1000 nM.
With `N#Cc1cccc(-c2nc(N)nc3c2ncn3Cc2ccc(N)cc2)c1` [Compound 101, 3-(2-amino-9-(4-aminobenzyl)-9H-purin-6-yl) benzonitrile], the results for the Ki in assay [1] and in assay [2] were greater than 1000 nM and 10 to 100 nM, respectively. Besides, the IC50 on human recombinant A2AR is greater than 1000 nM.
For `N#Cc1cc(-c2nc(N)nc3c2ncn3Cc2ccc(N)cc2)ccn1` [Compound 118, 4-[2-amino-9-[(4-aminophenyl)methyl]purin-6-yl]pyridine-2-carbonitrile], in assay [2], the Ki is greater than 500 nM.
On to `N#Cc1cccc(-c2nc(N)nc3c2ncn3Cc2ccc(N)c(C(F)(F)F)c2)c1F` [Compound 111, 3-[2-amino-9-[[4-amino-3-(trifluoromethyl)phenyl]methyl]purin-6-yl]2-fluorobenzonitrile], for which the figures for the Ki in assay [1] and in assay [2] were greater than 1000 nM and 10 to 100 nM, respectively. For the same molecule, the IC50 on human recombinant A2AR is greater than 1000 nM.
Regarding `N#Cc1cccc(-c2nc(N)nc3c2ncn3Cc2c(F)cccc2F)c1F` [Compound 113, 3-(2-amino-9-(2,6-difluorobenzyl)-9H-purin-6-yl)-2-fluorobenzonitrile], the Ki in assay [1] is 300 to 1000 nM; in assay [2], 10 to 100 nM. For the same molecule, the IC50 on human recombinant A2AR lay within 300 to 1000 nM.
For the molecule `N#Cc1ccnc(-c2nc(N)nc3c2ncn3Cc2c(F)cc(N)cc2F)c1` [Compound 124, 2-[2-amino-9-[(4-amino-2,6-difluoro-phenyl)methyl]purin-6-yl]pyridine-4-carbonitrile], the Ki in assay [1] is no more than 300 nM; in assay [2], less than 10 nM. Also, the IC50 on human recombinant A2AR is less than 300 nM.
Turning to `N#Cc1cccc(-c2nc(N)nc3c2ncn3Cc2ccc(N)cc2F)n1` [Compound 119, 6-[2-amino-9-[(4-amino-2-fluoro-phenyl)methyl]purin-6-yl]pyridine-2-carbonitrile], the Ki in assay [2] was 100 to 500 nM.
